Read-outs that look alike come from different tables or passages of the source.
Type: physicochemical
[1] = 206 °F, pH 6.0, 50 psig, 0.5 M/L NaCl, 0.05 mol/liter base generator
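Further: hydrolysis of the base generator in aqueous solution, t1/2 given in hours as the time until half of it has reacted, with pH held steady during the run.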

From the text: In each case, the solution was maintained at a pressure of 50 psig during the test. The pH of the solution was maintained substantially constant by adding portions at 0.1 mol/liter sodium bicarbonate solution to the system while the hydrolysis was proceeding. Each base generator solution consisted of water containing 0.5 mol/liter sodium chloride and 0.05 mols/liter of the base generator.
*^1 This is the time, in hours, required for the base generator to be
This is a convenient way to measure the speed of a reaction.

NC(N)=O [Urea]
Half Life, t1/2 (0.5 m nacl water, pH 5.5): 8.4 h
Half Life, t1/2 (0.5 m nacl water, pH 6.2): 12.3 h
Half Life, t1/2 (0.5 m nacl water, pH 7): 45.2 h
Half Life, t1/2 (0.5 m nacl water, pH 8): 15.9 h

N#CO [KOCN, Potassium Cyanate]
Half Life, t1/2 (78 °F, pH 6.0, 50 psig, 0.5 M/L NaCl, 0.05 mol/liter base generator): 19.6 h
Half Life, t1/2 (78 °F, pH 6.5, 50 psig, 0.5 M/L NaCl, 0.05 mol/liter base generator): 68.6 h
Half Life, t1/2 (78 °F, pH 7.0, 50 psig, 0.5 M/L NaCl, 0.05 mol/liter base generator): 206.4 h
Half Life, t1/2 (99 °F, pH 7.0, 50 psig, 0.5 M/L NaCl, 0.05 mol/liter base generator): ~ 94.0 hours
Half Life, t1/2 (99 °F, pH 7.5, 50 psig, 0.5 M/L NaCl, 0.05 mol/liter base generator): ~ 223.0 hours
Half Life, t1/2 (116 °F, pH 8.0, 50 psig, 0.5 M/L NaCl, 0.05 mol/liter base generator): ~ 223.0 hours

O=N[O-].[Na+] [NaNO2, Sodium Nitrite]
Half Life, t1/2 (212 °F, pH 6.0, 50 psig, 0.5 M/L NaCl, 0.05 mol/liter base generator): 80.0 h
Half Life, t1/2 (279 °F, pH 5.5, 50 psig, 0.5 M/L NaCl, 0.05 mol/liter base generator): 17.5 h
Half Life, t1/2 (279 °F, pH 6.0, 50 psig, 0.5 M/L NaCl, 0.05 mol/liter base generator): 49.2 h
Half Life, t1/2 (279 °F, pH 7.0, 50 psig, 0.5 M/L NaCl, 0.05 mol/liter base generator): 141.4 h
Half Life, t1/2 (280 °F, pH 6.5, 50 psig, 0.5 M/L NaCl, 0.05 mol/liter base generator): 84.9 h
Half Life, t1/2 (296 °F, pH 6.5, 50 psig, 0.5 M/L NaCl, 0.05 mol/liter base generator): 73.2 h

CC1CO1 (stereo not shown) [Propylene oxide, Propylene Oxide]
Half Life, t1/2 (76 °F, pH 7.0, 50 psig, 0.5 M/L NaCl, 0.05 mol/liter base generator): 86.1 h
Half Life, t1/2 (106 °F, pH 6.0, 50 psig, 0.5 M/L NaCl, 0.05 mol/liter base generator): 26.5 h
Half Life, t1/2 (122 °F, pH 6.0, 50 psig, 0.5 M/L NaCl, 0.05 mol/liter base generator): 26.0 h
Half Life, t1/2 (122 °F, pH 7.0, 50 psig, 0.5 M/L NaCl, 0.05 mol/liter base generator): 35.6 h

O=C1C=CC(=O)N1 [Maleimide]
Half Life, t1/2 (76 °F, pH 6.0, 50 psig, 0.5 M/L NaCl, 0.05 mol/liter base generator): 450.1 h
Half Life, t1/2 (96 °F, pH 6.0, 50 psig, 0.5 M/L NaCl, 0.05 mol/liter base generator): 53.6 h
Half Life, t1/2 (109 °F, pH 6.0, 50 psig, 0.5 M/L NaCl, 0.05 mol/liter base generator): 92.0 h
Half Life, t1/2 (109 °F, pH 7.0, 50 psig, 0.5 M/L NaCl, 0.05 mol/liter base generator): 35.0 h
Half Life, t1/2 (110 °F, pH 5.5, 50 psig, 0.5 M/L NaCl, 0.05 mol/liter base generator): 439.0 h
Half Life, t1/2 (110 °F, pH 6.5, 50 psig, 0.5 M/L NaCl, 0.05 mol/liter base generator): 43.8 h
Half Life, t1/2 (140 °F, pH 6.0, 50 psig, 0.5 M/L NaCl, 0.05 mol/liter base generator): 18.4 h
Half Life, t1/2 [1]: too fast

O=C1CCC(=O)N1 [Succinimide]
Half Life, t1/2 (177 °F, pH 6.0, 50 psig, 0.5 M/L NaCl, 0.05 mol/liter base generator): 184.1 h
Half Life, t1/2 (177 °F, pH 7.0, 50 psig, 0.5 M/L NaCl, 0.05 mol/liter base generator): 28.4 h
Half Life, t1/2 [1]: 31.3 h

Source: US4617994A, “Determining residual oil saturation by injecting CO2 and base generating reactant” (priority 1985, dated 1986)
